Results taken from patent US20120214862A1, “MODULATION OF FACTOR 7 EXPRESSION” (ISIS Pharmaceuticals, Inc., priority 2009, published 2012).
In the oligonucleotide strings, read from the 5' end, every base follows the letter of its sugar. An asterisk marks phosphorothioate; unmarked linkages are phosphodiester. Other units and linkages are bracketed, terminal groups are in braces. A string of capitals states the bases alone. e = 2'-O-(2-methoxyethyl) (MOE); [5mC] = 5-methylcytosine; d = 2'-deoxy (DNA)

System: human Factor 7 mRNA
Test: Antisense inhibition of human Factor 7 mRNA in HepB3 cells, lipofectin, 50 nM, real-time RT-PCR
Format: cell-based
Conditions: HepB3 cells; for % Inhibition (human Factor 7 mRNA): Example 1, 50 nM, ~24 h, relative to untreated control cells
In short: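 After transfection of wells containing 4,000 cells, treatment ran for approximately 24 h. RIBOGREEN®-measured total RNA served for normalisation, and inhibition was calculated as a percentage of untreated control.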

[1] = lipofectin, 50 nM antisense oligonucleotide, approximately 24 hours, primer probe set RTS 2927, relative to untreated control

407956 (antisense eA*eA*e[5mC]*eT*eT*dG*d[5mC]*dA*dT*dT*dT*dA*dG*dT*dG*eA*eT*eG*e[5mC]*eG) [compound 407956]
% Inhibition (human Factor 7 mRNA) (lipofectin): 19%

407957 (antisense eG*eG*e[5mC]*e[5mC]*eT*dG*dG*dG*dA*dA*d[5mC]*dT*dT*dG*d[5mC]*eA*eT*eT*eT*eA) [compound 407957]
% Inhibition (human Factor 7 mRNA) (lipofectin): 52%

407958 (antisense eG*e[5mC]*e[5mC]*eG*eT*dG*d[5mC]*dT*dT*dG*d[5mC]*d[5mC]*dG*dG*dA*eG*eT*e[5mC]*eT*eG) [compound 407958]
% Inhibition (human Factor 7 mRNA) (lipofectin): 58%

407959 (antisense eG*e[5mC]*eA*eG*eG*dG*dA*dT*dG*dG*d[5mC]*dA*dT*d[5mC]*dG*eA*eG*eT*e[5mC]*e[5mC]) [compound 407959]
% Inhibition (human Factor 7 mRNA) (lipofectin): 0%

407960 (antisense eG*eT*eG*e[5mC]*e[5mC]*d[5mC]*dA*dG*dG*dA*d[5mC]*dG*dG*d[5mC]*d[5mC]*e[5mC]*eT*eG*e[5mC]*eA) [compound 407960]
% Inhibition (human Factor 7 mRNA) (lipofectin): 53%

407961 (antisense eA*eA*eG*eT*eA*dG*dA*dT*dG*dA*dT*dG*d[5mC]*d[5mC]*dT*eG*eA*eG*eT*eG) [compound 407961]
% Inhibition (human Factor 7 mRNA) (lipofectin): 34%

407962 (antisense eT*eT*eG*eG*eA*dA*dG*d[5mC]*dA*dG*d[5mC]*d[5mC]*d[5mC]*dA*d[5mC]*eG*eG*e[5mC]*eT*eG) [compound 407962]
% Inhibition (human Factor 7 mRNA) (lipofectin): 41%

407963 (antisense eA*eG*eA*eG*e[5mC]*dA*dG*dG*dG*dT*dG*d[5mC]*d[5mC]*dT*dT*eG*eG*eA*eA*eG) [compound 407963]
% Inhibition (human Factor 7 mRNA) (lipofectin): 33%

416422 (antisense eA*eG*e[5mC]*eG*eA*d[5mC]*d[5mC]*d[5mC]*d[5mC]*dG*d[5mC]*d[5mC]*dT*dG*d[5mC]*eA*eG*e[5mC]*e[5mC]*eA) [compound 416422]
% Inhibition of human Factor 7 mRNA levels [1]: 8%

416423 (antisense eG*eT*eG*eT*eT*dT*d[5mC]*dT*d[5mC]*d[5mC]*dT*d[5mC]*d[5mC]*dT*dG*eA*eG*eG*e[5mC]*e[5mC]) [compound 416423]
% Inhibition of human Factor 7 mRNA levels [1]: 51%

416424 (antisense eG*eA*eG*eA*e[5mC]*d[5mC]*dA*dT*dG*dA*dT*dG*dA*dA*dA*eT*e[5mC]*eT*e[5mC]*eT) [compound 416424]
% Inhibition of human Factor 7 mRNA levels [1]: 27%

416425 (antisense eA*eA*eG*e[5mC]*eA*dG*dA*dA*dG*dG*d[5mC]*dA*dG*dA*dG*eG*eA*eG*e[5mC]*e[5mC]) [compound 416425]
% Inhibition of human Factor 7 mRNA levels [1]: 13%

416426 (antisense eA*eG*e[5mC]*e[5mC]*e[5mC]*dA*dA*dG*d[5mC]*dA*dG*dA*dA*dG*dG*e[5mC]*eA*eG*eA*eG) [compound 416426]
% Inhibition of human Factor 7 mRNA levels [1]: 34%

416427 (antisense e[5mC]*e[5mC]*e[5mC]*eT*eG*dA*dA*dG*d[5mC]*d[5mC]*d[5mC]*dA*dA*dG*d[5mC]*eA*eG*eA*eA*eG) [compound 416427]
% Inhibition of human Factor 7 mRNA levels [1]: 5%

416428 (antisense e[5mC]*eT*eG*eG*eG*dT*dT*dA*d[5mC]*dG*dA*dA*dG*dA*d[5mC]*eT*eG*e[5mC]*eA*eG) [compound 416428]
% Inhibition of human Factor 7 mRNA levels [1]: 11%

416429 (antisense eA*e[5mC]*eG*e[5mC]*e[5mC]*dG*dT*dG*dG*dG*d[5mC]*dT*dT*d[5mC]*d[5mC]*eT*e[5mC]*e[5mC]*eT*eG) [compound 416429]
% Inhibition of human Factor 7 mRNA levels [1]: 47%

416430 (antisense eG*e[5mC]*eA*eG*e[5mC]*dT*d[5mC]*d[5mC]*dT*d[5mC]*d[5mC]*dA*dG*dG*dA*eA*e[5mC]*eG*e[5mC]*eG) [compound 416430]
% Inhibition of human Factor 7 mRNA levels [1]: 52%

416431 (antisense eA*eG*eG*eG*eA*dG*d[5mC]*d[5mC]*d[5mC]*dG*dG*d[5mC]*d[5mC]*dG*d[5mC]*eA*eG*e[5mC]*eT*e[5mC]) [compound 416431]
% Inhibition of human Factor 7 mRNA levels [1]: 25%

416432 (antisense eA*eG*e[5mC]*eA*e[5mC]*dT*dG*d[5mC]*dT*d[5mC]*d[5mC]*dT*d[5mC]*d[5mC]*dT*eT*eG*e[5mC]*eA*e[5mC]) [compound 416432]
% Inhibition of human Factor 7 mRNA levels [1]: 44%

416433 (antisense eA*eG*eA*eA*eA*dT*d[5mC]*d[5mC]*dA*dG*dA*dA*d[5mC]*dA*dG*e[5mC]*eT*eT*e[5mC]*eG) [compound 416433]
% Inhibition of human Factor 7 mRNA levels [1]: 0%

416434 (antisense e[5mC]*eT*eG*eT*eA*dA*dG*dA*dA*dA*dT*d[5mC]*d[5mC]*dA*dG*eA*eA*e[5mC]*eA*eG) [compound 416434]
% Inhibition of human Factor 7 mRNA levels [1]: 0%

416435 (antisense e[5mC]*e[5mC]*e[5mC]*eA*eT*d[5mC]*dA*d[5mC]*dT*dG*dT*dA*dA*dG*dA*eA*eA*eT*e[5mC]*e[5mC]) [compound 416435]
% Inhibition of human Factor 7 mRNA levels [1]: 3%

416436 (antisense eA*e[5mC]*eT*eG*eG*dT*d[5mC]*d[5mC]*d[5mC]*d[5mC]*dA*dT*d[5mC]*dA*d[5mC]*eT*eG*eT*eA*eA) [compound 416436]
% Inhibition of human Factor 7 mRNA levels [1]: 27%

416437 (antisense eA*eG*eG*e[5mC]*eA*d[5mC]*dA*d[5mC]*dT*dG*dG*dT*d[5mC]*d[5mC]*d[5mC]*e[5mC]*eA*eT*e[5mC]*eA) [compound 416437]
% Inhibition of human Factor 7 mRNA levels [1]: 52%

416439 (antisense eG*eT*e[5mC]*e[5mC]*eT*dT*dG*d[5mC]*dA*dG*dG*dA*dG*d[5mC]*d[5mC]*e[5mC]*e[5mC]*e[5mC]*eA*eT) [compound 416439]
% Inhibition of human Factor 7 mRNA levels [1]: 56%

416440 (antisense eG*eG*eA*e[5mC]*eT*dG*dG*dA*dG*d[5mC]*dT*dG*dG*dT*d[5mC]*e[5mC]*eT*eT*eG*e[5mC]) [compound 416440]
% Inhibition of human Factor 7 mRNA levels [1]: 44%

416441 (antisense eA*eG*eA*eT*eA*dT*dA*dG*dG*dA*d[5mC]*dT*dG*dG*dA*eG*e[5mC]*eT*eG*eG) [compound 416441]
% Inhibition of human Factor 7 mRNA levels [1]: 32%

416442 (antisense eA*eG*e[5mC]*eA*eG*dA*dT*dA*dT*dA*dG*dG*dA*d[5mC]*dT*eG*eG*eA*eG*e[5mC]) [compound 416442]
% Inhibition of human Factor 7 mRNA levels [1]: 57%

416443 (antisense eG*eA*eG*eG*e[5mC]*dA*dG*dA*dA*dG*d[5mC]*dA*dG*dA*dT*eA*eT*eA*eG*eG) [compound 416443]
% Inhibition of human Factor 7 mRNA levels [1]: 17%

416444 (antisense eA*e[5mC]*eA*eG*eT*dT*d[5mC]*d[5mC]*dG*dG*d[5mC]*d[5mC]*d[5mC]*dT*d[5mC]*eG*eA*eA*eG*eG) [compound 416444]
% Inhibition of human Factor 7 mRNA levels [1]: 24%

416445 (antisense eT*eA*e[5mC]*eT*eG*d[5mC]*dT*d[5mC]*dA*d[5mC]*dA*dG*d[5mC]*d[5mC]*dG*e[5mC]*e[5mC]*eG*eT*eT) [compound 416445]
% Inhibition of human Factor 7 mRNA levels [1]: 57%

416447 (antisense e[5mC]*eA*eT*eG*eG*dA*dT*dA*dT*dT*d[5mC]*dA*dA*d[5mC]*dT*eG*eT*eG*eG*eG) [compound 416447]
% Inhibition of human Factor 7 mRNA levels [1]: 17%

416448 (antisense eT*eT*eT*eT*eT*d[5mC]*d[5mC]*dA*d[5mC]*dA*dT*dG*dG*dA*dT*eA*eT*eT*e[5mC]*eA) [compound 416448]
% Inhibition of human Factor 7 mRNA levels [1]: 34%

416450 (antisense eG*eG*eT*eT*eT*dG*d[5mC]*dT*dG*dG*d[5mC]*dA*dT*dT*dT*e[5mC]*eT*eT*eT*eT) [compound 416450]
% Inhibition of human Factor 7 mRNA levels [1]: 49%

416451 (antisense eG*e[5mC]*e[5mC]*eA*eT*dG*dG*dA*d[5mC]*dA*d[5mC]*dT*d[5mC]*d[5mC]*d[5mC]*e[5mC]*eT*eT*eT*eG) [compound 416451]
% Inhibition of human Factor 7 mRNA levels [1]: 75%

416452 (antisense e[5mC]*e[5mC]*eA*eA*e[5mC]*dA*dA*d[5mC]*dA*dG*dG*dA*d[5mC]*d[5mC]*dT*eG*e[5mC]*e[5mC]*eA*eT) [compound 416452]
% Inhibition of human Factor 7 mRNA levels [1]: 19%

416453 (antisense eG*eA*eT*eT*eT*dT*dG*dT*d[5mC]*dG*dA*dA*dA*d[5mC]*dA*eG*eT*eG*eG*eG) [compound 416453]
% Inhibition of human Factor 7 mRNA levels [1]: 45%

416454 (antisense e[5mC]*eG*eT*eG*e[5mC]*dT*d[5mC]*dG*d[5mC]*d[5mC]*d[5mC]*dA*dG*d[5mC]*dA*e[5mC]*e[5mC]*eG*e[5mC]*eG) [compound 416454]
% Inhibition of human Factor 7 mRNA levels [1]: 56%

416456 (antisense e[5mC]*eT*eG*e[5mC]*eG*d[5mC]*d[5mC]*dA*d[5mC]*d[5mC]*d[5mC]*dG*d[5mC]*d[5mC]*dG*eG*e[5mC]*eT*e[5mC]*eT) [compound 416456]
% Inhibition of human Factor 7 mRNA levels [1]: 58% | % Inhibition of human Factor 7 mRNA levels (gapmers targeted to nucleobases 13760 to 13789 of SEQ ID NO: 1 (Table 10)): 50%

416457 (antisense eG*eG*eA*eT*eG*dA*dT*dG*dA*d[5mC]*d[5mC]*dT*dG*d[5mC]*dG*e[5mC]*e[5mC]*eA*e[5mC]*e[5mC]) [compound 416457]
% Inhibition of human Factor 7 mRNA levels [1]: 48%

416458 (antisense eG*eG*e[5mC]*eG*eG*dA*dG*d[5mC]*dA*dG*d[5mC]*dG*d[5mC]*dG*dA*eT*eG*eT*e[5mC]*eG) [compound 416458]
% Inhibition of human Factor 7 mRNA levels [1]: 29%

416459 (antisense eT*eG*eG*eT*e[5mC]*dA*dG*dT*dG*dA*dG*dG*dA*d[5mC]*d[5mC]*eA*e[5mC]*eG*eG*eG) [compound 416459]
% Inhibition of human Factor 7 mRNA levels [1]: 23%

416460 (antisense e[5mC]*eA*e[5mC]*e[5mC]*eA*d[5mC]*dA*dT*dG*dG*dT*d[5mC]*dA*dG*dT*eG*eA*eG*eG*eA) [compound 416460]
% Inhibition of human Factor 7 mRNA levels [1]: 49%

416461 (antisense eG*eA*eA*eG*e[5mC]*dG*d[5mC]*dA*d[5mC]*dG*dA*dA*dG*dG*d[5mC]*e[5mC]*eA*eG*e[5mC]*eG) [compound 416461]
% Inhibition of human Factor 7 mRNA levels [1]: 43%
